Assay results from patent publication US9090605B2, “Substituted 5-,6- and 7-membered heterocycles, medicaments containing such compounds, and their use” (Vitae Pharmaceuticals, Inc., priority 2010, dated 2015).

Biological target: 11β-HSD1 (Homo sapiens, UniProt P28845)
Experiment: In vitro inhibition of 11β-HSD1, HTRF detection of cortisol generated by human liver microsomes (biological test example 1)
Type: biochemical
Parameters: detecting cortisol generated from cortisterone by human liver microsomes; from tissue; host or cells: human liver microsomes
Details: 1 hour at 37° C., cortisone 80 nM, NADPH 200 μM, read-out: IC50, inhibitory activity on 11β-HSD 1
Description: Briefly, compounds were incubated for 1 hour at 37° C. in Tris buffer (20 mM tris, 5 mM EDTA, pH 6.0) containing NADPH (200 μM) and cortisone (80 nM). Cortisol generated in the reaction was then detected with a competitive immunoassay, involving two HTRF conjugates: cortisol linked to XL665 and anti-cortisol antibody labeled with Europium cryptate. The incubation period for detection reaction was typically 2 hours. The amount of cortisol was determined by reading the time-resolved fluorescence of the wells (Ex 320/75 nm; Em 615/8.5 nm and 665/7.5 nm). The ratio of the two emission signals was then calculated (Em665*10000/Em615). […] Each assay also contained a calibration curve with cortisol to transform the fluorescent data into cortisol concentrations. Percent inhibition (% CTL) of each compound was determined relative to the carbenoxolone signal and IC50 curves were generated.

Chain of 11β-HSD1 (P28845 whole entry): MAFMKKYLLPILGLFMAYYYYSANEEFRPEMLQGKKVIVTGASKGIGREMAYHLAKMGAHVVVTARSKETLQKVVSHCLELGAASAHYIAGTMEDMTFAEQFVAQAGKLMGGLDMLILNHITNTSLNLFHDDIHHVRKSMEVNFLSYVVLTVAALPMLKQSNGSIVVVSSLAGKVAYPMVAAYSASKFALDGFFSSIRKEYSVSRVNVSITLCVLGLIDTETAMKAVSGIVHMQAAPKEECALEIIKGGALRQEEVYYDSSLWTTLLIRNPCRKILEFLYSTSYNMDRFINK

| Structure (SMILES) | IC50 [nM] |
| --- | --- |
| C[C@@H](c1ccc(-c2ccc(C3(O)COC3)cc2)cc1)N1CC[C@](CC(C)(C)O)(c2ccccc2)OC1=O [Example 1, (S)-6-(2-Hydroxy-2-methyl-propyl)-3-{(S)-1-[4′-(3-hydroxy-oxetan-3-yl)-biphenyl-4-yl]-ethyl}-6-phenyl-[1,3]oxazinan-2-one] | 56 |
| C[C@@H](c1ccc(-c2ccc(C3(C#N)CC3)nc2)cc1)N1CC[C@](CC(C)(C)O)(c2ccccc2)OC1=O [Example 2, 1-[5-(4-{(S)-1-[(S)-6-(2-Hydroxy-2-methyl-propyl)-2-oxo-6-phenyl-[1,3]oxazinan-3-yl]-ethyl}-phenyl)-pyridin-2-yl]-cyclopropanecarbonitrile] | 68 |
| C[C@@H](c1ccc(-c2ccc(C3(C(N)=O)CC3)nc2)cc1)N1CC[C@](CC(C)(C)O)(c2ccccc2)OC1=O [Example 3, 1-[5-(4-{(S)-1-[(S)-6-(2-Hydroxy-2-methyl-propyl)-2-oxo-6-phenyl-[1,3]oxazinan-3-yl]-ethyl}-phenyl)-pyridin-2-yl]-cyclopropanecarboxylic acid amide] | 39 |
| C[C@@H](c1ccc(-c2ccc(C3(C#N)CC3)nn2)cc1)N1CC[C@](CC(C)(C)O)(c2ccccc2)OC1=O [Example 4, 1-[6-(4-{(S)-1-[(S)-6-(2-Hydroxy-2-methyl-propyl)-2-oxo-6-phenyl-[1,3]oxazinan-3-yl]-ethyl}-phenyl)-pyridazin-3-yl]-cyclopropanecarbonitrile] | 53 |
| CNC(=O)C1(c2ccc(-c3ccc([C@H](C)N4CC[C@](CC(C)(C)O)(c5ccccc5)OC4=O)cc3)cn2)CC1 [Example 5, 1-[5-(4-{(S)-1-[(S)-6-(2-Hydroxy-2-methyl-propyl)-2-oxo-6-phenyl-[1,3]oxazinan-3-yl]-ethyl}-phenyl)-pyridin-2-yl]-cyclopropanecarboxylic acid methylamide] | 31 |
| C[C@@H](c1ccc(-c2ccc(C3(C(=O)N(C)C)CC3)nc2)cc1)N1CC[C@](CC(C)(C)O)(c2ccccc2)OC1=O [Example 6, 1-[5-(4-{(S)-1-[(S)-6-(2-Hydroxy-2-methyl-propyl)-2-oxo-6-phenyl-[1,3]oxazinan-3-yl]-ethyl}-phenyl)-pyridin-2-yl]-cyclopropanecarboxylic acid dimethylamide] | 21 |
| CCOC(=O)C1(c2ccc(-c3ccc([C@H](C)N4CC[C@](CC(C)(C)O)(c5ccccc5)OC4=O)cc3)nn2)CC1 [Example 7, 1-[6-(4-{(S)-1-[(S)-6-(2-Hydroxy-2-methyl-propyl)-2-oxo-6-phenyl-[1,3]oxazinan-3-yl]-ethyl}-phenyl)-pyridazin-3-yl]-cyclopropanecarboxylic acid ethyl ester] | 41 |
| C[C@@H](c1ccc(-c2ccc(C3(C(=O)O)CC3)nn2)cc1)N1CC[C@](CC(C)(C)O)(c2ccccc2)OC1=O [Example 8, 1-[6-(4-{(S)-1-[(S)-6-(2-Hydroxy-2-methyl-propyl)-2-oxo-6-phenyl-[1,3]oxazinan-3-yl]-ethyl}-phenyl)-pyridazin-3-yl]-cyclopropanecarboxylic acid] | 182 |
| C[C@@H](c1ccc(-c2ccc(C3(C(N)=O)CC3)nn2)cc1)N1CC[C@](CC(C)(C)O)(c2ccccc2)OC1=O [Example 9, 1-[6-(4-{(S)-1-[(S)-6-(2-Hydroxy-2-methyl-propyl)-2-oxo-6-phenyl-[1,3]oxazinan-3-yl]-ethyl}-phenyl)-pyridazin-3-yl]-cyclopropanecarboxylic acid amide] | 68 |
| CNC(=O)C1(c2ccc(-c3ccc([C@H](C)N4CC[C@](CC(C)(C)O)(c5ccccc5)OC4=O)cc3)nn2)CC1 [Example 10, 1-[6-(4-{(S)-1-[(S)-6-(2-Hydroxy-2-methyl-propyl)-2-oxo-6-phenyl-[1,3]oxazinan-3-yl]-ethyl}-phenyl)-pyridazin-3-yl]-cyclopropanecarboxylic acid methylamide] | 61 |
| C[C@@H](c1ccc(-c2ccc(C3(C(=O)N(C)C)CC3)nn2)cc1)N1CC[C@](CC(C)(C)O)(c2ccccc2)OC1=O [Example 11, 1-[6-(4-{(S)-1-[(S)-6-(2-Hydroxy-2-methyl-propyl)-2-oxo-6-phenyl-[1,3]oxazinan-3-yl]-ethyl}-phenyl)-pyridazin-3-yl]-cyclopropanecarboxylic acid dimethylamide] | 94 |
| C[C@@H](c1ccc(-c2ccn([C@@H]3CCOC3)c(=O)c2)cc1)N1CC[C@](CC(C)(C)O)(c2ccccc2)OC1=O [Example 12, (S)-6-(2-Hydroxy-2-methyl-propyl)-3-((S)-1-{4-[2-oxo-1-((R)-tetrahydro-furan-3-yl)-1,2-dihydro-pyridin-4-yl]-phenyl}-ethyl)-6-phenyl-[1,3]oxazinan-2-one] | 92 |
| C[C@@H](c1ccc(-c2ccn([C@H]3CCOC3)c(=O)c2)cc1)N1CC[C@](CC(C)(C)O)(c2ccccc2)OC1=O [Example 13, (S)-6-(2-Hydroxy-2-methyl-propyl)-3-((S)-1-{4-[2-oxo-1-((S)-tetrahydro-furan-3-yl)-1,2-dihydro-pyridin-4-yl]-phenyl}-ethyl)-6-phenyl-[1,3]oxazinan-2-one] | 46 |
| C[C@@H](c1ccc(-c2cnn(C3CCOCC3)c2)cc1)N1CC[C@](CC(C)(C)O)(c2ccccc2)OC1=O [Example 14, (S)-6-(2-Hydroxy-2-methyl-propyl)-6-phenyl-3-((S)-1-{4-[1-(tetrahydro-pyran-4-yl)-1H-pyrazol-4-yl]-phenyl}-ethyl)-[1,3]oxazinan-2-one] | 48 |
| C[C@@H](c1ccc(-c2cnn([C@@H]3CCOC3)c2)cc1)N1CC[C@](CC(C)(C)O)(c2ccccc2)OC1=O [Example 15, (S)-6-(2-Hydroxy-2-methyl-propyl)-6-phenyl-3-((S)-1-{4-[1-((R)-tetrahydro-furan-3-yl)-1H-pyrazol-4-yl]-phenyl}-ethyl)-[1,3]oxazinan-2-one] | 27 |
| C[C@@H](c1ccc(-c2cnn([C@H]3CCOC3)c2)cc1)N1CC[C@](CC(C)(C)O)(c2ccccc2)OC1=O [Example 16, (S)-6-(2-Hydroxy-2-methyl-propyl)-6-phenyl-3-((S)-1-{4-[1-((S)-tetrahydro-furan-3-yl)-1H-pyrazol-4-yl]-phenyl}-ethyl)-[1,3]oxazinan-2-one] | 29 |
| C[C@@H](c1ccc(-c2ccc(C3(C#N)CC3)cn2)cc1)N1CC[C@](CC(C)(C)O)(c2ccccc2)OC1=O [Example 17, 1-[6-(4-{(S)-1-[(S)-6-(2-Hydroxy-2-methyl-propyl)-2-oxo-6-phenyl-[1,3]oxazinan-3-yl]-ethyl}-phenyl)-pyridin-3-yl]-cyclopropanecarbonitrile] | 81 |
| C[C@@H](c1ccc(-c2ccc(C3(S(C)(=O)=O)CC3)nc2)cc1)N1CC[C@](CC(C)(C)O)(c2ccccc2)OC1=O [Example 18, (S)-6-(2-Hydroxy-2-methyl-propyl)-3-((S)-1-{4-[6-(1-methanesulfonyl-cyclopropyl)-pyridin-3-yl]-phenyl}-ethyl)-6-phenyl-[1,3]oxazinan-2-one] | 64 |
| C[C@@H](c1ccc(-c2ccc(C3(C(N)=O)CC3)cn2)cc1)N1CC[C@](CC(C)(C)O)(c2ccccc2)OC1=O [Example 19, 1-[6-(4-{(S)-1-[(S)-6-(2-Hydroxy-2-methyl-propyl)-2-oxo-6-phenyl-[1,3]oxazinan-3-yl]-ethyl}-phenyl)-pyridin-3-yl]-cyclopropanecarboxylic acid amide] | 35 |
